Species on record: Rattus norvegicus
Experiment: DrugMatrix - Regimen: Daily Repeat
Type: toxicity, organism-based, Sprague-Dawley
Parameters: regimen Daily Repeat, gender Male, age 6-8 weeks
Conditions: in vivo, po, route oral GAVAGE, […]; for ABSOLUTE BASOPHIL / ABSOLUTE EOSINOPHIL / ABSOLUTE LYMPHOCYTE / ABSOLUTE MONOCYTE / ABSOLUTE SEGMENTED NEUTROPHIL / BASOPHIL / EOSINOPHIL / ERYTHROCYTE COUNT / HEMATOCRIT / HEMOGLOBIN / LEUKOCYTE COUNT / LYMPHOCYTE / MEAN CORPUSCULAR HEMOGLOBIN / MEAN CORPUSCULAR HEMOGLOBIN CONCENTRATION / MEAN CORPUSCULAR VOLUME / MONOCYTE / NEUTROPHIL / NUCLEATED RED BLOOD CELLS / PLATELET COUNT: tissue Blood; for ALANINE AMINOTRANSFERASE / ALBUMIN / ALKALINE PHOSPHATASE / ASPARTATE AMINOTRANSFERASE / BLOOD UREA NITROGEN / CARBON DIOXIDE / CHLORIDE / CHOLESTEROL / CREATINE PHOSPHOKINASE / CREATININE / GLUCOSE / LACTATE DEHYDROGENASE / LIPASE / PHOSPHORUS / POTASSIUM / SODIUM / TOTAL BILIRUBIN / TOTAL PROTEIN / URIC ACID: tissue Plasma
[1] = 24 mg/kg, 72 h, dose level Low, time 3 day
[2] = 24 mg/kg, 120 h, dose level Low, time 5 day
[3] = 93 mg/kg, 72 h, dose level High, time 3 day
[4] = 93 mg/kg, 120 h, dose level High, time 5 day

Compound: Cc1cccc(Nc2ccccc2C(=O)O)c1C [MEFENAMIC ACID]
- ABSOLUTE BASOPHIL [1]: 0 CELLS/uL
- ABSOLUTE EOSINOPHIL [1]: 120.67 CELLS/uL
- ABSOLUTE LYMPHOCYTE [1]: 16868.33 CELLS/uL
- ABSOLUTE MONOCYTE [1]: 133 CELLS/uL
- ABSOLUTE SEGMENTED NEUTROPHIL [1]: 1478 CELLS/uL
- BASOPHIL [1]: 0%
- EOSINOPHIL [1]: 0.67%
- ERYTHROCYTE COUNT [1]: 5.76 x10E6/uL
- HEMATOCRIT [1]: 38.77%
- HEMOGLOBIN [1]: 15.4 G/DL
- LEUKOCYTE COUNT [1]: 18.6 x10E3/uL
- LYMPHOCYTE [1]: 90.67%
- MEAN CORPUSCULAR HEMOGLOBIN [1]: 26.73 pg
- MEAN CORPUSCULAR HEMOGLOBIN CONCENTRATION [1]: 39.73 G/DL
- MEAN CORPUSCULAR VOLUME [1]: 67.37 fL
- MONOCYTE [1]: 0.67%
- NEUTROPHIL [1]: 8%
- NUCLEATED RED BLOOD CELLS [1]: 0 /100WBC
- PLATELET COUNT [1]: 1314.33 x10E3/uL
- ALANINE AMINOTRANSFERASE [1]: 80.67 u/L
- ALBUMIN [1]: 4.33 G/DL
- ALKALINE PHOSPHATASE [1]: 454.67 u/L
- ASPARTATE AMINOTRANSFERASE [1]: 99.67 u/L
- BLOOD UREA NITROGEN [1]: 12 mg/dL
- CARBON DIOXIDE [1]: 32 mmol/L
- CHLORIDE [1]: 102.33 MEQ/L
- CHOLESTEROL [1]: 71 mg/dL
- CREATINE PHOSPHOKINASE [1]: 725 u/L
- CREATININE [1]: 0.28 mg/dL
- GLUCOSE [1]: 165.67 mg/dL
- LACTATE DEHYDROGENASE [1]: 174.67 u/L
- LIPASE [1]: 13 u/L
- PHOSPHORUS [1]: 13.37 mg/dL
- POTASSIUM [1]: 6.54 MEQ/L
- SODIUM [1]: 146.73 MEQ/L
- TOTAL BILIRUBIN [1]: 0.2 mg/dL
- TOTAL PROTEIN [1]: 6 G/DL
- URIC ACID [1]: 1.83 mg/dL
- ABSOLUTE BASOPHIL [2]: 0 CELLS/uL
- ABSOLUTE EOSINOPHIL [2]: 0 CELLS/uL
- ABSOLUTE LYMPHOCYTE [2]: 17204 CELLS/uL
- ABSOLUTE MONOCYTE [2]: 113.33 CELLS/uL
- ABSOLUTE SEGMENTED NEUTROPHIL [2]: 1482.67 CELLS/uL
- BASOPHIL [2]: 0%
- EOSINOPHIL [2]: 0%
- ERYTHROCYTE COUNT [2]: 5.87 x10E6/uL
- HEMATOCRIT [2]: 36.9%
- HEMOGLOBIN [2]: 14.47 G/DL
- LEUKOCYTE COUNT [2]: 18.8 x10E3/uL
- LYMPHOCYTE [2]: 91.33%
- MEAN CORPUSCULAR HEMOGLOBIN [2]: 24.67 pg
- MEAN CORPUSCULAR HEMOGLOBIN CONCENTRATION [2]: 39.23 G/DL
- MEAN CORPUSCULAR VOLUME [2]: 62.87 fL
- MONOCYTE [2]: 0.67%
- NEUTROPHIL [2]: 8%
- NUCLEATED RED BLOOD CELLS [2]: 0.33 /100WBC
- PLATELET COUNT [2]: 1359 x10E3/uL
- ALANINE AMINOTRANSFERASE [2]: 61.67 u/L
- ALBUMIN [2]: 4.17 G/DL
- ALKALINE PHOSPHATASE [2]: 457.33 u/L
- ASPARTATE AMINOTRANSFERASE [2]: 87.33 u/L
- BLOOD UREA NITROGEN [2]: 13.33 mg/dL
- CARBON DIOXIDE [2]: 31.33 mmol/L
- CHLORIDE [2]: 101.67 MEQ/L
- CHOLESTEROL [2]: 67.67 mg/dL
- CREATINE PHOSPHOKINASE [2]: 379.33 u/L
- CREATININE [2]: 0.19 mg/dL
- GLUCOSE [2]: 144.67 mg/dL
- LACTATE DEHYDROGENASE [2]: 449.33 u/L
- LIPASE [2]: 11.33 u/L
- PHOSPHORUS [2]: 11.87 mg/dL
- POTASSIUM [2]: 6.54 MEQ/L
- SODIUM [2]: 145.2 MEQ/L
- TOTAL BILIRUBIN [2]: 0.2 mg/dL
- TOTAL PROTEIN [2]: 5.97 G/DL
- URIC ACID [2]: 1.43 mg/dL
- ABSOLUTE BASOPHIL [3]: 0 CELLS/uL
- ABSOLUTE EOSINOPHIL [3]: 46.33 CELLS/uL
- ABSOLUTE LYMPHOCYTE [3]: 12604 CELLS/uL
- ABSOLUTE MONOCYTE [3]: 348.67 CELLS/uL
- ABSOLUTE SEGMENTED NEUTROPHIL [3]: 1701 CELLS/uL
- BASOPHIL [3]: 0%
- EOSINOPHIL [3]: 0.33%
- ERYTHROCYTE COUNT [3]: 5.47 x10E6/uL
- HEMATOCRIT [3]: 35.43%
- HEMOGLOBIN [3]: 13.77 G/DL
- LEUKOCYTE COUNT [3]: 14.7 x10E3/uL
- LYMPHOCYTE [3]: 85.67%
- MEAN CORPUSCULAR HEMOGLOBIN [3]: 25.17 pg
- MEAN CORPUSCULAR HEMOGLOBIN CONCENTRATION [3]: 38.9 G/DL
- MEAN CORPUSCULAR VOLUME [3]: 64.77 fL
- MONOCYTE [3]: 2.33%
- NEUTROPHIL [3]: 11.67%
- NUCLEATED RED BLOOD CELLS [3]: 0.33 /100WBC
- PLATELET COUNT [3]: 1191.33 x10E3/uL
- ALANINE AMINOTRANSFERASE [3]: 64.33 u/L
- ALBUMIN [3]: 3.93 G/DL
- ALKALINE PHOSPHATASE [3]: 288.33 u/L
- ASPARTATE AMINOTRANSFERASE [3]: 83 u/L
- BLOOD UREA NITROGEN [3]: 11 mg/dL
- CARBON DIOXIDE [3]: 34 mmol/L
- CHLORIDE [3]: 101.67 MEQ/L
- CHOLESTEROL [3]: 82 mg/dL
- CREATINE PHOSPHOKINASE [3]: 546.33 u/L
- CREATININE [3]: 0.16 mg/dL
- GLUCOSE [3]: 149 mg/dL
- LACTATE DEHYDROGENASE [3]: 123 u/L
- LIPASE [3]: 11 u/L
- PHOSPHORUS [3]: 12.4 mg/dL
- POTASSIUM [3]: 6.65 MEQ/L
- SODIUM [3]: 145.07 MEQ/L
- TOTAL BILIRUBIN [3]: 0.17 mg/dL
- TOTAL PROTEIN [3]: 5.63 G/DL
- URIC ACID [3]: 1.57 mg/dL
- ABSOLUTE BASOPHIL [4]: 0 CELLS/uL
- ABSOLUTE EOSINOPHIL [4]: 0 CELLS/uL
- ABSOLUTE LYMPHOCYTE [4]: 16873.67 CELLS/uL
- ABSOLUTE MONOCYTE [4]: 0 CELLS/uL
- ABSOLUTE SEGMENTED NEUTROPHIL [4]: 1459.67 CELLS/uL
- BASOPHIL [4]: 0%
- EOSINOPHIL [4]: 0%
- ERYTHROCYTE COUNT [4]: 5.73 x10E6/uL
- HEMATOCRIT [4]: 35.9%
- HEMOGLOBIN [4]: 14.23 G/DL
- LEUKOCYTE COUNT [4]: 18.33 x10E3/uL
- LYMPHOCYTE [4]: 92%
- MEAN CORPUSCULAR HEMOGLOBIN [4]: 24.87 pg
- MEAN CORPUSCULAR HEMOGLOBIN CONCENTRATION [4]: 39.63 G/DL
- MEAN CORPUSCULAR VOLUME [4]: 62.73 fL
- MONOCYTE [4]: 0%
- NEUTROPHIL [4]: 8%
- NUCLEATED RED BLOOD CELLS [4]: 0.33 /100WBC
- PLATELET COUNT [4]: 1419 x10E3/uL
- ALANINE AMINOTRANSFERASE [4]: 66.67 u/L
- ALBUMIN [4]: 4.3 G/DL
- ALKALINE PHOSPHATASE [4]: 382.67 u/L
- ASPARTATE AMINOTRANSFERASE [4]: 85 u/L
- BLOOD UREA NITROGEN [4]: 11.67 mg/dL
- CARBON DIOXIDE [4]: 31.67 mmol/L
- CHLORIDE [4]: 101.33 MEQ/L
- CHOLESTEROL [4]: 76.67 mg/dL
- CREATINE PHOSPHOKINASE [4]: 196.33 u/L
- CREATININE [4]: 0.14 mg/dL
- GLUCOSE [4]: 143 mg/dL
- LACTATE DEHYDROGENASE [4]: 166.33 u/L
- LIPASE [4]: 11.33 u/L
- PHOSPHORUS [4]: 12.5 mg/dL
- POTASSIUM [4]: 6.98 MEQ/L
- SODIUM [4]: 144.2 MEQ/L
- TOTAL BILIRUBIN [4]: 0.17 mg/dL
- TOTAL PROTEIN [4]: 6.23 G/DL
- URIC ACID [4]: 2.33 mg/dL

From ChEMBL document CHEMBL3885881, “DrugMatrix”
